Laboratory results taken from patent publication US9849191B2, “Protein-polymer-drug conjugates” (MERSANA THERAPEUTICS, INC., priority 2013, dated 2017).
Non-standard residues stand in square brackets, D forms with d. Residues, ends and D or L forms follow the SMILES beside them. *: point of attachment. Dolaproine = CO[C@@H]([C@@H]1CCCN1)[C@@H](C)C(=O)O; Dil = CC[C@H](C)[C@H](NC)[C@@H](CC(=O)O)OC; NMe2Val = CC(C)[C@@H](C(=O)*)N(C)C; NH(3-hydroxypropyl) = OCCCN*

Test: Tolerability of Auristatin F-hydroxypropylamide (MTD study)
Type: in vivo, mice
Conditions: n=6
Description: The vehicle control group received physiological saline.

CC[C@H](C)[C@@H]([C@@H](CC(=O)N1CCC[C@H]1[C@H](OC)[C@@H](C)C(=O)N[C@@H](Cc1ccccc1)C(=O)NCCCO)OC)N(C)C(=O)[C@@H](NC(=O)[C@H](C(C)C)N(C)C)C(C)C [AF-HPA, auristatin F hydroxypropyl amide] (NMe2Val-V[Dil][Dolaproine]F-{NH(3-hydroxypropyl)})
Mortality or morbidity (3.2 mg/kg single IV dose): 1 animal died on day 7, 3
Mortality or morbidity (4.7 mg/kg single IV dose): 1 animal died on Day 3, 1
